{
  "source": "PubChem BioAssay (NCI)",
  "assay_in_all_cases": "NCI tumour cell line growth inhibition, 48 h",
  "key": {"[1]": {"test_system": "A498 renal"}, "[2]": {"test_system": "ACHN renal"}, "[3]": {"test_system": "CCRF-CEM leukemia"}, "[4]": {"test_system": "DU-145 prostate"}, "[5]": {"test_system": "HCC-2998 colon"}, "[6]": {"test_system": "HCT-15 colon"}, "[7]": {"test_system": "HL-60(TB) leukemia"}, "[8]": {"test_system": "HOP-92 NSCLC"}, "[9]": {"test_system": "HS 578T breast"}, "[10]": {"test_system": "K-562 leukemia"}, "[11]": {"test_system": "LOX IMVI melanoma"}, "[12]": {"test_system": "MDA-MB-231 breast"}, "[13]": {"test_system": "MDA-MB-435"}, "[14]": {"test_system": "MOLT-4 leukemia"}, "[15]": {"test_system": "NCI-H23 lung"}, "[16]": {"test_system": "NCI/ADR-RES ovarian"}, "[17]": {"test_system": "OVCAR-5 ovarian"}, "[18]": {"test_system": "PC-3 prostate"}, "[19]": {"test_system": "RPMI-8226 leukemia"}, "[20]": {"test_system": "SF-295 CNS"}, "[21]": {"test_system": "SF-539 CNS"}, "[22]": {"test_system": "SK-MEL-28 melanoma"}, "[23]": {"test_system": "SK-MEL-5 melanoma"}, "[24]": {"test_system": "SK-OV-3 ovarian"}, "[25]": {"test_system": "SN12C renal"}, "[26]": {"test_system": "SNB-75 CNS"}, "[27]": {"test_system": "SR leukemia"}, "[28]": {"test_system": "SW-620 colon"}, "[29]": {"test_system": "UACC-257 melanoma"}, "[30]": {"test_system": "UACC-62 melanoma"}, "[31]": {"test_system": "UO-31 renal"}},
  "note": "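Compound exposure: 48 hours, 5 concentrations, 96-well plates. GI50: concentration for 50% inhibition of growth. TGI marks complete inhibition of growth.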",
  "data": [
    {"smiles": "IP(CCCCCCCCCCSc1n(Cc2ccc3ccccc3c2)c(-c2ccccc2)c(-c2ccccc2)[n+]1Cc1ccc2ccccc2c1)(c1ccccc1)(c1ccccc1)c1ccccc1", "values": [
      {"measurement": "GI50", "setting": "[1]", "result": 1.35, "unit": "µM"},
      {"measurement": "TGI", "setting": "[1]", "result": 3.02, "unit": "µM"},
      {"measurement": "GI50", "setting": "[2]", "result": 1.82, "unit": "µM"},
      {"measurement": "TGI", "setting": "[2]", "result": 3.64, "unit": "µM"},
      {"measurement": "GI50", "setting": "[3]", "result": 0.489, "unit": "µM"},
      {"measurement": "TGI", "setting": "[3]", "result": 1.95, "unit": "µM"},
      {"measurement": "GI50", "setting": "[4]", "result": 0.748, "unit": "µM"},
      {"measurement": "TGI", "setting": "[4]", "result": 2.19, "unit": "µM"},
      {"measurement": "GI50", "setting": "[5]", "result": 0.531, "unit": "µM"},
      {"measurement": "TGI", "setting": "[5]", "result": 1.92, "unit": "µM"},
      {"measurement": "GI50", "setting": "[6]", "result": 1.79, "unit": "µM"},
      {"measurement": "TGI", "setting": "[6]", "result": 3.42, "unit": "µM"},
      {"measurement": "GI50", "setting": "[7]", "result": 0.189, "unit": "µM"},
      {"measurement": "TGI", "setting": "[7]", "result": 0.438, "unit": "µM"},
      {"measurement": "GI50", "setting": "[8]", "result": 0.24, "unit": "µM"},
      {"measurement": "TGI", "setting": "[8]", "result": 0.932, "unit": "µM"},
      {"measurement": "GI50", "setting": "[9]", "result": 0.67, "unit": "µM"},
      {"measurement": "TGI", "setting": "[9]", "result": 3.96, "unit": "µM"},
      {"measurement": "GI50", "setting": "[10]", "result": 0.411, "unit": "µM"},
      {"measurement": "TGI", "setting": "[10]", "result": 1.84, "unit": "µM"},
      {"measurement": "GI50", "setting": "[11]", "result": 0.553, "unit": "µM"},
      {"measurement": "TGI", "setting": "[11]", "result": 1.82, "unit": "µM"},
      {"measurement": "GI50", "setting": "[12]", "result": 0.318, "unit": "µM"},
      {"measurement": "TGI", "setting": "[12]", "result": 1.26, "unit": "µM"},
      {"measurement": "GI50", "setting": "[13]", "result": 0.403, "unit": "µM"},
      {"measurement": "TGI", "setting": "[13]", "result": 1.59, "unit": "µM"},
      {"measurement": "GI50", "setting": "[14]", "result": 0.541, "unit": "µM"},
      {"measurement": "TGI", "setting": "[14]", "result": 2.31, "unit": "µM"},
      {"measurement": "GI50", "setting": "[15]", "result": 0.322, "unit": "µM"},
      {"measurement": "TGI", "setting": "[15]", "result": 1.32, "unit": "µM"},
      {"measurement": "GI50", "setting": "[16]", "result": 3.94, "unit": "µM"},
      {"measurement": "TGI", "setting": "[16]", "result": 23.6, "unit": "µM"},
      {"measurement": "GI50", "setting": "[17]", "result": 1.5, "unit": "µM"},
      {"measurement": "TGI", "setting": "[17]", "result": 3, "unit": "µM"},
      {"measurement": "GI50", "setting": "[18]", "result": 0.415, "unit": "µM"},
      {"measurement": "TGI", "setting": "[18]", "result": 1.73, "unit": "µM"},
      {"measurement": "GI50", "setting": "[19]", "result": 0.337, "unit": "µM"},
      {"measurement": "TGI", "setting": "[19]", "result": 1.5, "unit": "µM"},
      {"measurement": "GI50", "setting": "[20]", "result": 1.57, "unit": "µM"},
      {"measurement": "TGI", "setting": "[20]", "result": 3.1, "unit": "µM"},
      {"measurement": "GI50", "setting": "[21]", "result": 0.771, "unit": "µM"},
      {"measurement": "TGI", "setting": "[21]", "result": 2.15, "unit": "µM"},
      {"measurement": "GI50", "setting": "[22]", "result": 0.764, "unit": "µM"},
      {"measurement": "TGI", "setting": "[22]", "result": 2.14, "unit": "µM"},
      {"measurement": "GI50", "setting": "[23]", "result": 1.1, "unit": "µM"},
      {"measurement": "TGI", "setting": "[23]", "result": 2.31, "unit": "µM"},
      {"measurement": "GI50", "setting": "[24]", "result": 0.714, "unit": "µM"},
      {"measurement": "TGI", "setting": "[24]", "result": 2.17, "unit": "µM"},
      {"measurement": "GI50", "setting": "[25]", "result": 0.399, "unit": "µM"},
      {"measurement": "TGI", "setting": "[25]", "result": 1.54, "unit": "µM"},
      {"measurement": "GI50", "setting": "[26]", "result": 0.389, "unit": "µM"},
      {"measurement": "TGI", "setting": "[26]", "result": 1.89, "unit": "µM"},
      {"measurement": "GI50", "setting": "[27]", "result": 0.347, "unit": "µM"},
      {"measurement": "TGI", "setting": "[27]", "result": 1.72, "unit": "µM"},
      {"measurement": "GI50", "setting": "[28]", "result": 0.794, "unit": "µM"},
      {"measurement": "TGI", "setting": "[28]", "result": 2.16, "unit": "µM"},
      {"measurement": "GI50", "setting": "[29]", "result": 0.412, "unit": "µM"},
      {"measurement": "TGI", "setting": "[29]", "result": 1.7, "unit": "µM"},
      {"measurement": "GI50", "setting": "[30]", "result": 0.562, "unit": "µM"},
      {"measurement": "TGI", "setting": "[30]", "result": 2.02, "unit": "µM"},
      {"measurement": "GI50", "setting": "[31]", "result": 1.82, "unit": "µM"},
      {"measurement": "TGI", "setting": "[31]", "result": 4.89, "unit": "µM"}
    ]}
  ]
}
